# From PubChem BioAssay AID2767 (The Scripps Research Institute Molecular Screening Center, 2010)
# Active and inactive are the calls of the source. The rule behind the calls is not given here.
# Molecular target: TEM-1 beta-lactamase (Escherichia coli) (UniProt Q932Y6)
# Assay: concentration-dependent inhibition of TEM-1 enzyme – biochemical, epi-absorbance, IC50, counter-screen for dual metallo-beta-lactamase inhibitor project, late-stage follow-up (AID 2767)
# Conditions: nitrocefin absorbance
# Chain of TEM-1 beta-lactamase (Escherichia coli) (Q932Y6 1-286): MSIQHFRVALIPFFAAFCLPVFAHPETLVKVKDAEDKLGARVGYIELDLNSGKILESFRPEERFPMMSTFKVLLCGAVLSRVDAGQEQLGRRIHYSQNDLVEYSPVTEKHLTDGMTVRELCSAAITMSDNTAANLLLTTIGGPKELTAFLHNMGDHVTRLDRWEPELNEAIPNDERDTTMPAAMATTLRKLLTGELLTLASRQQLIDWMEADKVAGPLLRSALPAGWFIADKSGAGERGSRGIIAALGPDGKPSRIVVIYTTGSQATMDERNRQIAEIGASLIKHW
row,Structure (SMILES),IC50
1,[Hg+][c]1ccccc1,> 59.6 µM (inactive)
2,O=C(O)c1ccc[c]([Hg+])c1,> 59.6 µM (inactive)
3,Cc1cc[c]([Hg+])cc1,> 59.6 µM (inactive)
4,COc1cccc[c]1[Hg+],> 59.6 µM (inactive)
5,O=C(O)c1cc[c]([Hg][Cl])cc1,> 59.6 µM (inactive)
6,CC(=O)Nc1cc[c]([Hg+])cc1,> 59.6 µM (inactive)
